Data taken from patent US4202891A, “15-Oxygenated sterol compounds and the use of such compounds to inhibit the biosynthesis of sterols” (priority 1977, dated 1980).
pIC50: −log10 of the molar value. Like-named read-outs stand apart in the source and are kept apart here.

Key:
serum cholesterol = assay: Effect on serum cholesterol levels in rats, daily subcutaneous injection (Examples 41, 42); assay type: in vivo, rat (male, Sprague-Dawley); conditions: for Serum Cholesterol (Mean ± S.E.M.): 5 mg s.c. once a day in triolein; for decrease in serum cholesterol levels (in words) / % Reduction of serum cholesterol (Mean ± S.E.M.): 5 mg s.c. once a day; for decrease in serum cholesterol levels (in words): after 3, 6, 9, 12 days vs same rats before, after 12 days vs triolein; for % Reduction of serum cholesterol (Mean ± S.E.M.): from initial levels in same rats
Experimental: Male rats of the Sprague-Dawley strain were fed Purina rat chow ad libidum. The rats were maintained on a light (7 A.M.-6 P.M.) -dark (6 P.M.-7 A.M.) cycle throughout the study and for a period of at least 4 days prior to the initiation of the study.
(§1) 3β-Hexadecanoyloxy-5α-cholest-8(14)-en-15-one (5 mg; dissolved in 0.25 ml of triolein), hereafter referred to as the "palmitate ester", or 3β-hemisuccinoyloxy-5α-cholest-8(14)-en-15-one (5 mg; suspended in 0.25 ml of triolein through the use of a tight-fitting all-glass homogenizer), hereafter referred to as the "hemisuccinate ester", were administered subcutaneously once a day at about 12 P.M. to each of eight and six rats, respectively. Control animals (8) received daily injections of triolein (0.25 ml).
Blood samples were taken from the rats periodically and the serum cholesterol concentrations measured, in duplicate, by the method of Abell et al., J. Biol. Chem., Vol. 195, pp. 357-366 ([…]).
Following generally the procedure described in Example 41, 3β-Ethoxy-14α-ethyl-5α-cholest-7-en-15-one (5 mg) in triolein (0.25 ml) was administered subcutaneously once a day to each of eight rats. Control animals (8) received daily injections of triolein (0.25 ml).
Similarly, 5α-cholest-8(14)-en-3β-ol-15-one (2mg) in (0.2 ml) olive oil or 5.0 mg in 0.5 ml of olive oil) was administered subcutaneously once a day to each of a group of rats. The 2 mg dose was administered to 12 rats, while a like number of rats received daily injections of 0.2 ml olive oil. 5 mg doses were administered to each of 6 rats, while 6 control animals received daily injections of 0.5 ml olive oil. The rats used in this study initially weighed between 110 and 190 grams.

[1] = assay type: in vivo, rat (male, Sprague-Dawley); conditions: for average percentage weight gain (mean±S.E.M.): 5 mg s.c. once a day, total experimental period; for differences in growth versus vehicle-treated rats (in words): daily s.c.
Experimental: as §1
The average percentage weight gain over the total experimental period in the palmitate, hemisuccinate, and triolein groups were (mean±S.E.M.) 40.5±4.6, 40.7±1.6, and 43.6±3.3, respectively.

liver = assay type: in vivo, rat (male, Sprague-Dawley); conditions: 5 mg s.c. once a day
Experimental: as §1
The mean values of the liver weights of the triolein-treated rats (9.6 g±0.08, S.E.M.). S.E. differed from those of the palmitate ester-treated rats (11.4 g±0.5, S.E.M.). Similarly, the mean value of the liver weights, when expressed as a percentage of the total body weight, of the triolein-treated rats (4.09%±0.08, S.E.M.) differed from the mean value for the palmitate ester-treated rats (4.53%±0.09, S.E.M.).

[2] = test system: sterol biosynthesis in L cells; assay: Inhibition of sterol synthesis from [1-14C]acetate in L cell cultures; assay type: cell-based; conditions: Mus musculus; L cell cultures; read-out: Concentrations Required for 50% Inhibition of Sterol Synthesis
Experimental: (§2) The effect of various 15-oxygenated sterols on sterol biosynthesis in L cells and in primary cultures of mouse liver cells was tested essentially under conditions described in detail previously [A. A. Kandutsch and H. W. Chen, J. Biol. Chem., Vol. 248, pp. 8408-8417 (1973) and A. A. Kandutsch and H. W. Chen, J. Biol. Chem., Vol. 249, pp. 6057-6061 (1974`)].
(§3) The primary liver cell cultures were prepared from 16-day-old (C57BL/6J fetuses and grown in chemically defined medium (serum-free) as described in the above cited publications. The L cells, a subline of NCTC clone 929 mouse fibroblasts, were grown in chemically defined medium (serum-free) as described in the publications. These L cells are transformed fibroblasts which are regarded as malignant since they will grow as tumors if injected into the mouse strain from which they were initially obtained.
(§4) The preparation of steroid-containing media, procedures for assays of the conversion of [1-^14 C]acetate into digitonin-precipitable sterols, fatty acids, and CO2 and methods for the measurement of DNA, protein, and HMG-CoA reductase were as described in the published articles. L cell cultures were preincubated with the 15-oxygenated sterols and their derivatives for 4 hours, then [1-^14 C]acetate was added at a concentration of 4 μmoles per ml (4 μCi per ml); or the L cell cultures were incubated for 5 hours with the 15-oxygenated sterols before they were harvested for determination of microsomal HMG-CoA reductase activity.
(§5) The test compounds were tested over a range of at least 4 concentrations and the assay was repeated until the concentration of test compound required to produce 50% inhibition was located on the steeply declining portion of an activity vs. concentration plot. To diminish any possible effects of generalized differences in cellular metabolism, the rates of sterol synthesis from [1-^14 C]acetate were calculated as the ratio of [^14 C]sterols to [^14 C]fatty acids as described in the two cited articles by Kandutsch and Chen.

[3] = test system: sterol biosynthesis in L cells; conditions: cited from earlier work; for pIC50: L cell cultures, as reported by Kandutsch and Chen, read-out: Concentrations Required for 50% Inhibition of Sterol Synthesis; for inhibitory action on the synthesis of sterols (in words): L cells in culture
[4] = test system: sterol biosynthesis in primary cultures of mouse liver cells; conditions: cited from earlier work; for inhibitory action on the synthesis of sterols (in words): primary cultures of mouse liver cells
HMG-CoA reductase [5] = assay: Reduction of the activity of HMG-CoA reductase in L cell cultures; assay type: cell-based, mouse; conditions: read-out: Concentrations Required for 50% Reduction of the Activity of HMG-CoA Reductase
Experimental: as §3, §4
(§6) A number of the 15-oxygenated sterols have also been tested with respect to their effects on the activity and/or levels of the enzyme HMG-CoA reductase (3-hydroxy-3-methylglutaryl coenzyme A reductase) in the L cells and in the liver cells. As noted previously, this enzyme catalyzes the reduction of 3-hydroxy-3-methylglutaryl coenzyme A to yield mevalonic acid, an essential intermediate in the biosynthesis of sterols and of a number of other essential compounds in cells.
(§7) Using the technique described by Kandutsch and Chen in the article cited in the previous example, the concentrations of various 15-oxygenated sterols required to reduce the levels of activity of HMG-CoA reductase by 50% was determined in the cells of the L cells in culture and of the primary cultures of liver cells.

plasma cholesterol = conditions: cited from earlier work
[6] = test system: sterol biosynthesis in primary cultures of mouse liver cells; assay: Inhibition of sterol synthesis from [1-14C]acetate in primary cultures of liver cells; assay type: cell-based; conditions: primary cultures of liver cells, read-out: Concentrations Required for 50% Inhibition of Sterol Synthesis
Experimental: as §2, §3, §4
(§8) Conditions for incubating the 15-oxygenated sterols or their derivatives with liver cell cultures were similar to those described for L cell cultures except that the cultures were incubated with the test compounds for 12 hours before labeled acetate was added or before they were harvested for enzyme assay.
as §5

HMG-CoA reductase [7] = assay: Reduction of the activity of HMG-CoA reductase in primary cultures of liver cells; assay type: cell-based, mouse; conditions: read-out: Concentrations Required for 50% Reduction of the Activity of HMG-CoA Reductase
Experimental: as §3, §4, §8, §6, §7

[8] = primary cultures of liver cells, as reported by Kandutsch and Chen, read-out: Concentrations Required for 50% Inhibition of Sterol Synthesis

CCCCCCCCCCCCCCCC(=O)O[C@H]1CC[C@@]2(C)[C@@H](CCC3=C4C(=O)C[C@H]([C@H](C)CCCC(C)C)[C@@]4(C)CC[C@@H]32)C1 [3β-hexadecanoyloxy-5α-cholest-8(14)-en-15-one]
Serum Cholesterol (Mean ± S.E.M.) (serum cholesterol; day 0 (initial)): 91.6 ± 2.6 mg per 100 ml | Serum Cholesterol (Mean ± S.E.M.) (serum cholesterol; day 3): 74.9 ± 3.9 mg per 100 ml | Serum Cholesterol (Mean ± S.E.M.) (serum cholesterol; day 6): 75.8 ± 5.0 mg per 100 ml | Serum Cholesterol (Mean ± S.E.M.) (serum cholesterol; day 9): 77.9 ± 5.9 mg per 100 ml | Serum Cholesterol (Mean ± S.E.M.) (serum cholesterol; day 12): 61.4 ± 3.9 mg per 100 ml | decrease in serum cholesterol levels (in words) (serum cholesterol): significant decreases in serum cholesterol levels | % Reduction of serum cholesterol (Mean ± S.E.M.) (serum cholesterol; day 3): 18.2 ± 3.3% | % Reduction of serum cholesterol (Mean ± S.E.M.) (serum cholesterol; day 6): 15.7 ± 4.4% | % Reduction of serum cholesterol (Mean ± S.E.M.) (serum cholesterol; day 9): 14.5 ± 2.9% | % Reduction of serum cholesterol (Mean ± S.E.M.) (serum cholesterol; day 12): 33.2 ± 2.7% | average percentage weight gain (mean±S.E.M.) [1]: 40.5±4.6% | differences in growth versus vehicle-treated rats (in words) [1]: no significant differences in the growth | difference of liver weights from triolein-treated rats (in words) (liver): differed | liver weight (mean, S.E.M.) (liver): 11.4 g | liver weight as percentage of total body weight (mean, S.E.M.) (liver): 4.53% | pIC50 [2]: < 4.80

CC(C)CCC(=O)[C@@H](C)[C@H]1CC[C@H]2[C@@H]3CC=C4C[C@@H](O)CC[C@]4(C)[C@H]3CC[C@]12C [Cholest-5-en-3β-ol-22-one]
pIC50 [3]: 5.77 | pIC50 [4, 8]: 4.43

CC(C)CCC[C@@H](C)[C@H]1CC(=O)C2=C3CC[C@H]4C[C@@H](OC(=O)CCC(=O)O)CC[C@]4(C)[C@H]3CC[C@@]21C [3β-hemisuccinoyloxy-5α-cholest-8(14)-en-15-one]
Serum Cholesterol (Mean ± S.E.M.) (serum cholesterol; day 0 (initial)): 89.1 ± 2.6 mg per 100 ml | Serum Cholesterol (Mean ± S.E.M.) (serum cholesterol; day 3): 78.6 ± 2.4 mg per 100 ml | Serum Cholesterol (Mean ± S.E.M.) (serum cholesterol; day 6): 72.5 ± 1.9 mg per 100 ml | Serum Cholesterol (Mean ± S.E.M.) (serum cholesterol; day 9): 72.3 ± 1.6 mg per 100 ml | Serum Cholesterol (Mean ± S.E.M.) (serum cholesterol; day 12): 58.8 ± 2.8 mg per 100 ml | decrease in serum cholesterol levels (in words) (serum cholesterol): significant decreases in serum cholesterol levels | % Reduction of serum cholesterol (Mean ± S.E.M.) (serum cholesterol; day 3): 13.5 ± 4.4% | % Reduction of serum cholesterol (Mean ± S.E.M.) (serum cholesterol; day 6): 18.1 ± 4.1% | % Reduction of serum cholesterol (Mean ± S.E.M.) (serum cholesterol; day 9): 18.4 ± 3.5% | % Reduction of serum cholesterol (Mean ± S.E.M.) (serum cholesterol; day 12): 33.9 ± 2.9% | average percentage weight gain (mean±S.E.M.) [1]: 40.7±1.6% | differences in growth versus vehicle-treated rats (in words) [1]: no significant differences in the growth | difference of liver weights from triolein-treated rats (in words) (liver): no significant difference | liver weight (mean, S.E.M.) (liver): 10.6 g | liver weight as percentage of total body weight (mean, S.E.M.) (liver): 4.36% | pIC50 [2]: 5.49 | pIC50 (HMG-CoA reductase [5]): 5.52

CC(C)CCC[C@@H](C)[C@H]1CC[C@H]2[C@@H]3CC=C4C[C@@H](O)CC[C@]4(C)[C@H]3CC[C@]12C [Cholesterol]
pIC50 [4, 8]: < 2.28 | activity in the liver cell culture system (in words) ([4]; primary cultures of liver cells): inactive

CC(C)CCC[C@@H](C)[C@H]1CC[C@H]2[C@@H]3C(=O)C=C4C[C@@H](O)CC[C@]4(C)[C@H]3CC[C@]12C [7-ketocholesterol]
inhibitory action on the synthesis of sterols (in words) [3]: strong inhibitory action | inhibitory action on the synthesis of sterols (in words) [4]: strong inhibitory action | plasma cholesterol-lowering effect in mice (in words) (plasma cholesterol): no significant plasma cholesterol-lowering effect in mice

C[C@H](CCCC(C)(C)O)[C@H]1CC[C@H]2[C@@H]3CC=C4C[C@@H](O)CC[C@]4(C)[C@H]3CC[C@]12C [Cholest-5-en-3β,25-diol]
pIC50 [3]: 7.15 | inhibitory action on the synthesis of sterols (in words) [3]: strong inhibitory action | pIC50 ([4]; liver cells, read-out: lowest previously reported concentration for 50% inhibition of sterol synthesis): 6.00 | pIC50 [4, 8]: 6.00 | inhibitory action on the synthesis of sterols (in words) [4]: strong inhibitory action | plasma cholesterol-lowering effect in mice (in words) (plasma cholesterol): no significant plasma cholesterol-lowering effect in mice

CC(C)CCC[C@@H](C)[C@H]1CC(O)C2=C3C(O)C[C@H]4C[C@@H](O)CC[C@]4(C)[C@H]3CC[C@@]21C (stereo partly drawn) [5α-cholest-8(14)-en-3β,7ε,15ε-triol]
pIC50 [2]: 5.30 | pIC50 [6]: 5.32 | pIC50 (HMG-CoA reductase [5]): 5.72 | pIC50 (HMG-CoA reductase [7]): 4.74

CC(C)CCC(O)[C@@H](C)[C@H]1CC[C@H]2[C@@H]3CC=C4C[C@@H](O)CC[C@]4(C)[C@H]3CC[C@]12C (stereo partly drawn) [Cholest-5-en-3β,22α-diol]
pIC50 [3]: 5.43 | pIC50 [4, 8]: 5.22
